The text below walks through data of ChEMBL document CHEMBL4725363 (J Med Chem, 2020).

Calls of active or inactive are those of the source. The calls are words filed in the database; no cut-off is given here.

The test system of series [1] is COc1ccc2c3c([nH]c2c1)[C@@H]1N(CC3)C(=O)c2c(OC)cccc2N1C. In words: Negative allosteric modulator activity at human PDE5A1 (535-860 residues) expressed in Escherichia coli BL21 assessed as Kcat for cGMP at 200 nM incubated for 15 mins using [3H]-cGMP as substrate by liquid scintillation counting method (reference value: 2.53 +/- 0.24 /s). Particulars: filed as negative allosteric modulator.

The test system is the same in series [2]. The experiment in a line: Negative allosteric modulator activity at human PDE5A1 (535-860 residues) expressed in Escherichia coli BL21 assessed as Kcat for cGMP at 25 nM incubated for 15 mins using [3H]-cGMP as substrate by liquid scintillation counting method (reference value: 2.53 +/- 0.24 /s). Particulars: filed as negative allosteric modulator.
The test system is the same in series [3]. The experiment in a line: Negative allosteric modulator activity at human PDE5A1 (535-860 residues) expressed in Escherichia coli BL21 assessed as Km for cGMP at 100 nM incubated for 15 mins using [3H]-cGMP as substrate by liquid scintillation counting method (reference value: 4.22 +/- 0.45 uM). Conditions: filed as negative allosteric modulator.
Series [4] shares this test system. In words: Negative allosteric modulator activity at human PDE5A1 (535-860 residues) expressed in Escherichia coli BL21 assessed as Kcat/Km ratio for cGMP at 100 nM incubated for 15 mins using [3H]-cGMP as substrate by liquid scintillation counting method (reference value: 0.6 +/- 0.04 /s/microM). Conditions: filed as negative allosteric modulator.
The test system is the same in series [5]. In words: Negative allosteric modulator activity at human PDE5A1 (535-860 residues) expressed in Escherichia coli BL21 assessed as Kcat for cGMP at 100 nM incubated for 15 mins using [3H]-cGMP as substrate by liquid scintillation counting method (reference value: 2.53 +/- 0.24 /s). Particulars: filed as negative allosteric modulator.
For series [6] the test system is unchanged. In words: Negative allosteric modulator activity at human PDE5A1 (535-860 residues) expressed in Escherichia coli BL21 assessed as Kcat/Km ratio for cGMP at 200 nM incubated for 15 mins using [3H]-cGMP as substrate by liquid scintillation counting method (reference value: 0.6 +/- 0.04 /s/microM). Particulars: filed as negative allosteric modulator.
For series [7] the test system is unchanged. The experiment in a line: Negative allosteric modulator activity at human PDE5A1 (535-860 residues) expressed in Escherichia coli BL21 assessed as Km for cGMP at 25 nM incubated for 15 mins using [3H]-cGMP as substrate by liquid scintillation counting method (reference value: 4.22 +/- 0.45 uM). Conditions: filed as negative allosteric modulator.
Series [8] shares this test system. The experiment in a line: Negative allosteric modulator activity at human PDE5A1 (535-860 residues) expressed in Escherichia coli BL21 assessed as Km for cGMP at 50 nM incubated for 15 mins using [3H]-cGMP as substrate by liquid scintillation counting method (reference value: 4.22 +/- 0.45 uM). Particulars: filed as negative allosteric modulator.
Series [9] has the same test system. The experiment in a line: Negative allosteric modulator activity at human PDE5A1 (535-860 residues) expressed in Escherichia coli BL21 assessed as Kcat for cGMP at 50 nM incubated for 15 mins using [3H]-cGMP as substrate by liquid scintillation counting method (reference value: 2.53 +/- 0.24 /s). Conditions: filed as negative allosteric modulator.
Series [10] shares this test system. In words: Negative allosteric modulator activity at human PDE5A1 (535-860 residues) expressed in Escherichia coli BL21 assessed as Km for cGMP at 200 nM incubated for 15 mins using [3H]-cGMP as substrate by liquid scintillation counting method (reference value: 4.22 +/- 0.45 uM). Conditions: filed as negative allosteric modulator.
Series [11] has the same test system. The experiment in a line: Negative allosteric modulator activity at human PDE5A1 (535-860 residues) expressed in Escherichia coli BL21 assessed as Kcat/Km ratio for cGMP at 50 nM incubated for 15 mins using [3H]-cGMP as substrate by liquid scintillation counting method (reference value: 0.6 +/- 0.04 /s/microM). Conditions: filed as negative allosteric modulator.

For series [12] the test system is unchanged. In words: Negative allosteric modulator activity at human PDE5A1 (535-860 residues) expressed in Escherichia coli BL21 assessed as Kcat/Km ratio for cGMP at 25 nM incubated for 15 mins using [3H]-cGMP as substrate by liquid scintillation counting method (reference value: 0.6 +/- 0.04 /s/microM). Particulars: filed as negative allosteric modulator.
Series [13] is described as follows: Inhibition of human PDE5A1 D563A mutant expressed in Escherichia coli BL21 incubated for 15 mins using [3H]-cGMP as substrate by liquid scintillation counting method.
For series [14], the target named is cGMP-specific 3',5'-cyclic phosphodiesterase (Homo sapiens, UniProt O76074). The experiment in a line: Inhibition of human PDE5A1 (535-860 residues) expressed in Escherichia coli BL21 incubated for 15 mins using [3H]-cGMP as substrate by liquid scintillation counting method.
The species entered for the next series is Homo sapiens. The experiment in a line: Selectivity index, ratio of IC50 for human PDE6C to IC50 for human PDE5A1.
In series [15] the target is Dual 3',5'-cyclic-AMP and -GMP phosphodiesterase 11A (Homo sapiens, UniProt Q9HCR9). The experiment in a line: Inhibition of PDE11A catalytic domain (unknown origin) using [3H]-cAMP or [3H]-[…] as substrate after 15 mins by liquid scintillation counting method.
Series [16] addresses Dual specificity calcium/calmodulin-dependent 3',5'-cyclic nucleotide phosphodiesterase 1B (Homo sapiens, UniProt Q01064). The experiment in a line: Inhibition of human PDE1B (10-487 residues) expressed in Sf9 cells incubated for 15 mins using [3H]-cGMP as substrate by liquid scintillation counting method.
The target in series [17] is DNA topoisomerase 2-alpha (Homo sapiens) (UniProt P11388). In words: Inhibition of Top2 (unknown origin) mediated supercoiled DNA relaxation at 100 uM.
Series [18] concerns the target cAMP and cAMP-inhibited cGMP 3',5'-cyclic phosphodiesterase 10A (Homo sapiens, UniProt Q9Y233). The experiment in a line: Inhibition of human PDE10A catalytic domain (449 to 770 residues) using [3H]-cAMP as substrate after 15 mins by liquid scintillation counting method.
Series [19] concerns the target T1, DNA topoisomerase 1 (Homo sapiens) (UniProt P11387).
T1 sequence (whole entry): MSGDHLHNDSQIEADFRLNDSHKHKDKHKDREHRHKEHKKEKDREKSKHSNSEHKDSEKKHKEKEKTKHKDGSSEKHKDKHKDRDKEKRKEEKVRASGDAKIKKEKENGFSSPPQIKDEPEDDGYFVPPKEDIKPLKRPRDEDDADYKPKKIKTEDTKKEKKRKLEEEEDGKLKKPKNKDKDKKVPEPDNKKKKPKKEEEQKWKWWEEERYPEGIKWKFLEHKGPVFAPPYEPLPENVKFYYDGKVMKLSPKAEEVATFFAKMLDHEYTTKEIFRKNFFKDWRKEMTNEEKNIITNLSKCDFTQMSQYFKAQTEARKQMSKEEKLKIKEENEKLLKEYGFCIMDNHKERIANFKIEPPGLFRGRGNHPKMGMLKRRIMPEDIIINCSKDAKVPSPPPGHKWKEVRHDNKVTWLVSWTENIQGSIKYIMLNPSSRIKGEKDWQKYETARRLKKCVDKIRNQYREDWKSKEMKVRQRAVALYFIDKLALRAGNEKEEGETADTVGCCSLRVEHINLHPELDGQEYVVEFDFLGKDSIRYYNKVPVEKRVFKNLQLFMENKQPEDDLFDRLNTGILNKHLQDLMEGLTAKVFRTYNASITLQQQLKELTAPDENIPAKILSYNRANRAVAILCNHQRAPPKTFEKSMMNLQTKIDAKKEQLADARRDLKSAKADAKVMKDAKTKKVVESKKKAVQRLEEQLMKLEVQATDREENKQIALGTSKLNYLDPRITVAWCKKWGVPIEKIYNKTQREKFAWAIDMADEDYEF
The experiment in a line: Inhibition of Top (unknown origin) mediated supercoiled DNA relaxation at 100 uM.

Series [20] concerns the target High affinity 3',5'-cyclic-AMP phosphodiesterase 7A (Homo sapiens, UniProt Q13946). In words: Inhibition of PDE7A1 catalytic domain (130 to 482 residues) (unknown origin) using [3H]-cAMP as substrate after 15 mins by liquid scintillation counting method.

Sequence of Dual 3',5'-cyclic-AMP and -GMP phosphodiesterase 11A (Q9HCR9 whole entry, the tested form may be a part): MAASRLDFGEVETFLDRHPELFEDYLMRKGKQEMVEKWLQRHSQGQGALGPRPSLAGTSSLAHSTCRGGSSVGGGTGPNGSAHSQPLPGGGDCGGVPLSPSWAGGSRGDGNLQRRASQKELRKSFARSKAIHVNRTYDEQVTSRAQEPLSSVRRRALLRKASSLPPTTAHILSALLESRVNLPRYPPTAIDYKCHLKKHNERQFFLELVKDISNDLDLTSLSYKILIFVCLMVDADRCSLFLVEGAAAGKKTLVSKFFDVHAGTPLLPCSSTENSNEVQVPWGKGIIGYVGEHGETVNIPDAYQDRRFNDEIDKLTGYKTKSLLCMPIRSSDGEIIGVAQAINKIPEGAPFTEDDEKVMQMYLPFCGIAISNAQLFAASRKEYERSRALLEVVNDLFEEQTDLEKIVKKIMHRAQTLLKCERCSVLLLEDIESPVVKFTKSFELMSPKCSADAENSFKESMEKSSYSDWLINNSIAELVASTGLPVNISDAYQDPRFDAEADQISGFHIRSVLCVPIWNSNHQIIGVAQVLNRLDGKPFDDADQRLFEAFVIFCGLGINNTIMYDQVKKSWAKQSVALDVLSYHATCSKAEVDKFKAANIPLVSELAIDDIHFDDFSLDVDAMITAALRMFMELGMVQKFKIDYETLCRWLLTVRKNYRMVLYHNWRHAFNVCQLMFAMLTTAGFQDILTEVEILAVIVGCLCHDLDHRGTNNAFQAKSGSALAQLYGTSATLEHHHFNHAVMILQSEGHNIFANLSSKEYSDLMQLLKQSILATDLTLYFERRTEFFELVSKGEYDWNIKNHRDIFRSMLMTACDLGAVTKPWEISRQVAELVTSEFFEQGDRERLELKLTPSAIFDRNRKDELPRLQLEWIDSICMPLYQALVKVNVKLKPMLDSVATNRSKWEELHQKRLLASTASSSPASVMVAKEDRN
Sequence of cAMP and cAMP-inhibited cGMP 3',5'-cyclic phosphodiesterase 10A (Q9Y233 whole entry, the tested form may be a part): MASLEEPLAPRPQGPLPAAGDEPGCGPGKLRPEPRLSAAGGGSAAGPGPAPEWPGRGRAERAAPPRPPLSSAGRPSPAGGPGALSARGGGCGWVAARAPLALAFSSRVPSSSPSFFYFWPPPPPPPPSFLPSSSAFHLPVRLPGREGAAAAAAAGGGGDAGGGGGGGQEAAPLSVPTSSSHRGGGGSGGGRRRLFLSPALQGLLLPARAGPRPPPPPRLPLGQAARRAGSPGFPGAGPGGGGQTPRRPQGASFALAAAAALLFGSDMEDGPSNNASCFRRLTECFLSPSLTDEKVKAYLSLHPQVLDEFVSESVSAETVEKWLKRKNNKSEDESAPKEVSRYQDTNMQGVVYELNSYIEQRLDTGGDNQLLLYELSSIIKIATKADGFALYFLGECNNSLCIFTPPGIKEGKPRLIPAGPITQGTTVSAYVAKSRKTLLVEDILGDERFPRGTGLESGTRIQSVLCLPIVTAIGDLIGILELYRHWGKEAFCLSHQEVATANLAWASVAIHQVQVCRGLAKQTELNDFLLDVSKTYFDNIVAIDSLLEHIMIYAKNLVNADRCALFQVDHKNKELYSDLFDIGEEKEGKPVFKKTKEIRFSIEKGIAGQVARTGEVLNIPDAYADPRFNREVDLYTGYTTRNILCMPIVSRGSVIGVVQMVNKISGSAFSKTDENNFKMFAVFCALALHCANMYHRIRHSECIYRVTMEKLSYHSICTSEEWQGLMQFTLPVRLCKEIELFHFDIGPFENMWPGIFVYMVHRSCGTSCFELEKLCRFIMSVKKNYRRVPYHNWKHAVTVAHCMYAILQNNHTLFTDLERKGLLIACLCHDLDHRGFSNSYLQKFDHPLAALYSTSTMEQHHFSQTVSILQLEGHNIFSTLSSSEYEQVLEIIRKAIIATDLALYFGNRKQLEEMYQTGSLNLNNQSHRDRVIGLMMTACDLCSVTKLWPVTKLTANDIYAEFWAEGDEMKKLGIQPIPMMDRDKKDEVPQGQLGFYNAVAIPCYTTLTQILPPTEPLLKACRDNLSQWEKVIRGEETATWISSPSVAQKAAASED
Sequence of Dual specificity calcium/calmodulin-dependent 3',5'-cyclic nucleotide phosphodiesterase 1B (Q01064 whole entry, the tested form may be a part): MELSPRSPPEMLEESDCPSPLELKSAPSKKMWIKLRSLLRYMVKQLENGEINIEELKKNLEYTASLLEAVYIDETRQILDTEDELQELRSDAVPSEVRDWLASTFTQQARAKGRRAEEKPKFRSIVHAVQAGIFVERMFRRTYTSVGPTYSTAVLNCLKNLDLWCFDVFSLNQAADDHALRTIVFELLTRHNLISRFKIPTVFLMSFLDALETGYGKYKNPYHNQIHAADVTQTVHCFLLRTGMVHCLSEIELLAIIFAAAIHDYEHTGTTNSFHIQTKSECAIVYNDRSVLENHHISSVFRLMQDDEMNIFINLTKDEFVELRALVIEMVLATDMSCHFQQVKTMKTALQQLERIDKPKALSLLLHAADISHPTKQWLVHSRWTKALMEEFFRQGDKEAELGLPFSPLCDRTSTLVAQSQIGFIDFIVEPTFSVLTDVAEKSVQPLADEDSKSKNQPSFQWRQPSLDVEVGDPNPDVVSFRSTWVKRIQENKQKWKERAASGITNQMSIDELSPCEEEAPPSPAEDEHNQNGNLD
Sequence of High affinity 3',5'-cyclic-AMP phosphodiesterase 7A (Q13946 whole entry, the tested form may be a part): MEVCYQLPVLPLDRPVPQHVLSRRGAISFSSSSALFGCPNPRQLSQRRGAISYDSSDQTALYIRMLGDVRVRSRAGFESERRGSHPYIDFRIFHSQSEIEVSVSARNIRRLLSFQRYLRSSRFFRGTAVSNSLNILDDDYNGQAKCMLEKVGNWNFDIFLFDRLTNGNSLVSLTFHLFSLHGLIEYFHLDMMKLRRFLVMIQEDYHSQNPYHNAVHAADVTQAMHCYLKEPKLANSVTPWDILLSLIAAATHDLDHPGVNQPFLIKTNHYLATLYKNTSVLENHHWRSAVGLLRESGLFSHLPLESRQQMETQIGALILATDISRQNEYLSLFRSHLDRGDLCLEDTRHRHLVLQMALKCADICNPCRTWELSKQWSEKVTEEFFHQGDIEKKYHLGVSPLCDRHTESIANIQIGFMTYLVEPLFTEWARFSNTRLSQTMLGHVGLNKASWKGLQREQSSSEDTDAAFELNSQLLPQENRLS
Sequence of DNA topoisomerase 2-alpha (Homo sapiens) (P11388 whole entry, the tested form may be a part): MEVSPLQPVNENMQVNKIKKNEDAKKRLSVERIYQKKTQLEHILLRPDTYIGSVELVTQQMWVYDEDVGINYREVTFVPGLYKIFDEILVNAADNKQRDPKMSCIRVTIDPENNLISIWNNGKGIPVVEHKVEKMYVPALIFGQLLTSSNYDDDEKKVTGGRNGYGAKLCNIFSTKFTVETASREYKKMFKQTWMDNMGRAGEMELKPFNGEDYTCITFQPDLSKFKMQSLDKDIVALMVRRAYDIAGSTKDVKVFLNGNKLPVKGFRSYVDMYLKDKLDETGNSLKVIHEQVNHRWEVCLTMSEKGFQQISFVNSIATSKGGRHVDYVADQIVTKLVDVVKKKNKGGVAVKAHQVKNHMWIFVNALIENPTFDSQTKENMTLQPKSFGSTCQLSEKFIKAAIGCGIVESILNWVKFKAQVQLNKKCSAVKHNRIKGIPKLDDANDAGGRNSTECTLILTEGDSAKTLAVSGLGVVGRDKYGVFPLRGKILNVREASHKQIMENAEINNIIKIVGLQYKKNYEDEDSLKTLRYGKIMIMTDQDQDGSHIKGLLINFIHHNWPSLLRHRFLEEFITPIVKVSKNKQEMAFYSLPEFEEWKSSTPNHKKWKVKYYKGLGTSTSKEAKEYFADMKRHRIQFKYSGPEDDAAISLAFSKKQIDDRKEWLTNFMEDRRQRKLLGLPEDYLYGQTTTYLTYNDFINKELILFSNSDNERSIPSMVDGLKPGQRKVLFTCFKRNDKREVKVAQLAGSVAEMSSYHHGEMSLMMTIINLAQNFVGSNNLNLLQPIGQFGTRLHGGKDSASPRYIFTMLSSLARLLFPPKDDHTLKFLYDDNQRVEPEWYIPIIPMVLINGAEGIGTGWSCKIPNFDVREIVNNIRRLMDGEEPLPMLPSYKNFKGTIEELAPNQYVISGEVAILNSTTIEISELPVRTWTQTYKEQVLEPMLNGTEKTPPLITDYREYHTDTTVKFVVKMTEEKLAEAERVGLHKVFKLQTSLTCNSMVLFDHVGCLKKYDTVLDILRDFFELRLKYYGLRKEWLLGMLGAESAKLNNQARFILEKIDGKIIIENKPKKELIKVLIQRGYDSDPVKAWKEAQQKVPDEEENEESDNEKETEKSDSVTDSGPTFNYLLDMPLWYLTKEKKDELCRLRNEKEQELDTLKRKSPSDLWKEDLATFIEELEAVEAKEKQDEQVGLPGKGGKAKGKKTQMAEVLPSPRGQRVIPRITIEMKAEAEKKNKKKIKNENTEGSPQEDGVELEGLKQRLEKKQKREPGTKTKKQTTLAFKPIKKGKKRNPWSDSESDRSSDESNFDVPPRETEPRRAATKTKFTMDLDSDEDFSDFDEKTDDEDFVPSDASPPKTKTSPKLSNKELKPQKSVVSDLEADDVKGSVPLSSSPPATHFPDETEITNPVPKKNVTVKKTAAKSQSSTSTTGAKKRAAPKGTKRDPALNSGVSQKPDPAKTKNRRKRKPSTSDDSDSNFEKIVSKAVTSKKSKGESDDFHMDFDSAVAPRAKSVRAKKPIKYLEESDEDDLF

Regarding “cGMP-specific 3',5'-cyclic phosphodiesterase (Homo sapiens) (from UniProt O76074)”, the kcat is 1.05 s⁻¹ in series [1], 1.99 s⁻¹ in series [2], 1.48 s⁻¹ in series [5] and 1.51 s⁻¹ in series [9]. For the same compound, the Michaelis-Menten constant (Km) in [3] was determined as 13.2 µM; in [7], 11.8 µM; in series [8], 11.8 µM; in series [10] it was 12.5 µM. Besides, the kcat/Km in series [4] amounted to 110000 M⁻¹ s⁻¹; in series [6] it was 84000 M⁻¹ s⁻¹; in series [11] it was 130000 M⁻¹ s⁻¹; in [12], 170000 M⁻¹ s⁻¹.

Consider `CCCc1nn(C)c2c(=O)[nH]c(-c3cc(S(=O)(=O)N4CCN(C)CC4)ccc3OCC)nc12`, for which the IC50 in series [13] was determined as 1.2 nM.

`CN1c2ccccc2C(=O)N2CCc3c([nH]c4ccccc34)[C@@H]21` [EVODIAMINE] showed an IC50 in [14] of more than 50000 nM.

In turn, `CN1c2cccc(O)c2C(=O)N2CCc3c([nH]c4ccccc34)[C@@H]21` displayed a 50% inhibitory concentration (IC50) in [14] of more than 10000 nM.

Compound `COc1ccc2c3c([nH]c2c1)C1N(CC3)C(=O)c2c(OC)cccc2N1C` (stereo not drawn) returned an IC50 in series [14] of 53 nM.

In turn, `COc1cccc2c1C(=O)N1CCc3c([nH]c4ccccc34)[C@@H]1N2C` yielded an IC50 in series [14] of 2600 nM.

`CN1c2ccccc2C(=O)N2CCc3c([nH]c4ccccc34)[C@H]21`: inhibition in series [14] was half-maximal at 1300 nM (IC50).

For the compound `COc1cccc2c1C(=O)N1CCc3c([nH]c4ccccc34)C1N2C` (stereo not drawn), the Ratio IC50 in the series listed under Homo sapiens was more than 64. 340 nM corresponded to half-maximal inhibition in series [14] (IC50).

Regarding `COc1ccc2c3c([nH]c2c1)[C@H]1N(CC3)C(=O)c2c(OC)cccc2N1C`, the IC50 in series [14] is more than 10000 nM.

As for `COc1cccc2c1C(=O)N1CCc3c([nH]c4cccc(OC)c34)[C@H]1N2C`, the IC50 in series [15] is more than 20000 nM; in series [16], more than 20000 nM; in [14], 35 nM; in [18], 2200 nM; in [20], more than 20000 nM. Besides, the inhibition result in [17] and in series [19] was “inactive” in each case.

On to `CN1c2cccc(O)c2C(=O)N2CCc3c([nH]c4ccccc34)C21` (stereo not drawn), for which the IC50 in [14] is 1700 nM.

As to `CN1c2cccc(O)c2C(=O)N2CCc3c([nH]c4ccccc34)[C@H]21`, the IC50 in series [14] turned out to be 420 nM.

In series [14], `CN1c2ccccc2C(=O)N2CCc3c([nH]c4ccccc34)C21` (stereo not drawn) came in with an IC50 of 2100 nM.

Consider `COc1cccc2c1C(=O)N1CCc3c([nH]c4ccccc34)[C@H]1N2C`, for which, in the series listed under Homo sapiens, the Ratio IC50 was more than 190. The midpoint of inhibition in series [14], the IC50, lay at 110 nM.
